According to ChEMBL document CHEMBL1128004, “Ketones related to the benzoate 5-HT4 receptor antagonist RS-23597 are high affinity partial agonists” (Bioorg Med Chem Lett, 1994):

Columns and labels:
[1] = target: 5-hydroxytryptamine receptor 4 (Homo sapiens) (UniProt Q13639); assay: Compound was tested for antagonist activity against 5-HT4 receptor in rat esophageal muscularis mucosae; type: functional, tissue-based; conditions: Muscularis mucosa, target entry is the homologue from another species
[2] = target: 5-hydroxytryptamine receptor 4 (Homo sapiens) (UniProt Q13639); assay: Intrinsic activity relative to the 5-HT was determined; type: functional; conditions: Rattus norvegicus
[3] = target: 5-hydroxytryptamine receptor 4 (Homo sapiens) (UniProt Q13639); assay: Compound was tested for 5-HT4 receptor in rat esophageal muscularis mucosae; Antagonist; type: functional; conditions: filed as antagonist, target entry is the homologue from another species

Sequence of 5-hydroxytryptamine receptor 4 (Homo sapiens) (Q13639 whole entry): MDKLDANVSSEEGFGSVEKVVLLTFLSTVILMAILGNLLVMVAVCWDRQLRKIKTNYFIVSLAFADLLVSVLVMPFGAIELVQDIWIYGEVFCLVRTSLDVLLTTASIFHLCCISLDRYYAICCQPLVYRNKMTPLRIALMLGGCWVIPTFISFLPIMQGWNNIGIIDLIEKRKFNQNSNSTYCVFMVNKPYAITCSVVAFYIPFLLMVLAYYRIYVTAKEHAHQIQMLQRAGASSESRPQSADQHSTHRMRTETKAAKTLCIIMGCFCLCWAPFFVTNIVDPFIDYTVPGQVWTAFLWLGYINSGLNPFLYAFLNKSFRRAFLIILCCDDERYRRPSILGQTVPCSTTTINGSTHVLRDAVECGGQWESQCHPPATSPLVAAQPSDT

Compound | Intrinsic activity [2] | other results
COc1cc(N)c(Cl)cc1C(=O)OCCCN1CCCCC1 |  | pKb [1]: 7.9
COc1cc(N)c(Cl)cc1C(=O)NCCN1CCCCC1 | 0.6 | 
COc1cc(N)c(Cl)cc1C(=O)NC[C@@H]1CCN2CCC[C@@H]12 | 0.6 | 
COc1cc(N)c(Cl)cc1C(=O)OCCN1CCCCC1 | 0.5 | 
COc1cc(N)c(Cl)cc1C(=O)CCC1CCN(CCNS(C)(=O)=O)CC1 | 0.5 | 
CCN(CC)CCNC(=O)c1cc(Cl)c(N)cc1OC | 0.5 | 
CCN(CC)CCOC(=O)c1cc(Cl)c(N)cc1OC |  | pKb [1]: 7.3
COc1cc(N)c(Cl)cc1C(=O)CCC1CCN(CCCNS(C)(=O)=O)CC1 |  | Activity [3]: Antagonist
